Substitutions are numbered along the chain they refer to. Like-named read-outs stand apart in the source and are kept apart here.
How the values were obtained:
[1] = pH 7.72, l = 0.5, KNO3; cited from earlier work
human wild type CblC = target: T1, human wild type CblC (Homo sapiens, UniProt Q9Y4U1); assay: Binding to CblC and conversion to base-off configuration (UV-visible spectrophotometry); settings: pH 7.6, EPPS buffer 0.04 M
T1 sequence (Q9Y4U1 1-282): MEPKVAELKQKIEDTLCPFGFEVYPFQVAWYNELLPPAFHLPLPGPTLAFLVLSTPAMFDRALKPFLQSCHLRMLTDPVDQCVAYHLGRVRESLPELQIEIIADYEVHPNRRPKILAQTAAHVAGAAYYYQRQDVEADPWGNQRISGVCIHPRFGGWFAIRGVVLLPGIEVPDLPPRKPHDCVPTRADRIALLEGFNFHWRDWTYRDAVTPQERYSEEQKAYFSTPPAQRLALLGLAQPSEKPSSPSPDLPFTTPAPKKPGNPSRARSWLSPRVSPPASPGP
Description: An important aspect for the bioactivity of the new compounds is their ability to bind to the processing enzyme CblC, and to undergo conversion to the base-off configuration, which enhances their reactivity. This is a critical step in all intracellular pathways of vitamin B12 metabolism that are involved in pathogenesis, and certainly, relevant to the cblC disease itself. […] Binding studies were conducted at pH 7.6 (EPPS buffer, 0.04 M) and analyzed by UV-visible spectrophotometry.

cultured fibroblasts = assay: Cytotoxicity and cellular transport observed in cultured fibroblast experiments; format: cell-based, human
[2] = Concentration-dependent reaction rate of aquacobalamin with thiol ligand forming thiolatocobalamin (time-resolved UV-visible spectroscopy); format: physicochemical; settings: pH 7.2, l = 1, sodium triflate
Description: The UV-visible spectra of newly synthesized cobalamin derivatives was determined in EPPS buffer (40 mM, pH 7.6, l=1.0 M with sodium triflate). The reaction of aquacobalamin with cysteamine and mercaptopropionylglycine was monitored by time-resolved spectral scanning of reactions containing a fixed amount of aquacobalamin (10-25 μM (micromolar)) and various concentrations of the ligand.
Mercaptopropionylglycine reacted readily with aquacobalamin to form a stable MPGCbl complex at pH 7.2.
A fixed concentration of aquacobalamin was reacted with varying concentrations of the ligand MPG. The reaction was monitored by time-resolved UV-visible spectroscopy for a total of 50 minutes (FIG. 5). The spectral changes were consistent with the conversion of aquacobalamin into MPGCbl (FIG. 5 a) via a mechanism that involves no detectable reaction intermediates. Initial and final spectra are analyzed to confirm the identity of the thiolatocobalamin product (FIG. 5 b). Time courses were generated at the absorption maxima of each species (350 nm, H2OCbl^+, and 372 nm, MPGCbl) (FIG. 5 c).

[3] = target: T2, human recombinant CblC wild type (Homo sapiens, UniProt Q9Y4U1); format: biochemical; settings: dethiolation; 50 μM GSH
T2 sequence (Q9Y4U1 1-282): T1 sequence (Q9Y4U1 1-282)

[4] = target: T3, human recombinant CblC pathogenic mutant Arg161Gly (Homo sapiens, UniProt Q9Y4U1, R161G); format: biochemical; settings: for Product under ambient conditions, Mutant Arg161Gly: dethiolation, 50 μM GSH; for Half-life of beta-axial ligand removal, Mutant Arg161Gly: human, pH 7.6
T3 sequence (Q9Y4U1 1-282 R161G): T1 sequence (Q9Y4U1 1-282) with R161G
Description: (§1) The ability of the newly synthesized Cbl derivatives to serve as substrates for CblC was examined (FIG. 12). CblC activity was measured by UV-visible spectroscopy according to published procedures. Analysis of reaction products was performed by mass spectrometry. We measured dealkylation and de-thiolation of Co—C and Co—S bonded Cbl derivatives, respectively, by wild type and mutant CblC proteins to determine whether these reactions could be supported in patients harboring an abnormal isoform of CblC with low or no enzymatic activity.
(§2) First, the ability of novel cobalamins described herein was tested to act as substrate for wild type CblC and to restore the lost activity of pathogenic variants, such as mutant Arg161Gly, that leads to early-onset form of the cblC disease.

[5] = system: fibroblasts isolated from patients with cblC disease; assay: MMA in conditioned medium of cblC patient fibroblasts; format: cell-based, human
Excerpt: (§3) Cultured cells from control (healthy neonatal subjects) or cblC fibroblasts were supplemented without exogenous Cbl (negative control), with commercial CNCbl (current therapy control) or with the newly synthesized cobalamins (test group). The ability of these compounds to support intracellular Cbl metabolism in the absence of CblC was examined by monitoring disease biomarker metabolites Hcy and MMA levels in the conditioned medium.
(§4) The cellular response to treatment with new derivatives CyaCbl and MPGCbl in comparison with current therapeutic form CNCbl was measured. The ability of the new cobalamin derivatives CyaCbl and MPGCbl to achieve metabolic control, i.e. reduction of for example MMA production by cblC fibroblasts in culture, was examined as described in previously published experimental protocols. FIG. 13 provides a comparison of the effect of CNCbl (0.001 mM) versus the same dose of CyaCbl or MPGCbl given to cultured fibroblasts from healthy subjects (HFF, NHDF, PCS, Wiesel, Control) or from cblC patients (WG1801, WG2176, WG3354, GM10011, GM02345B, GM02452C).
(§5) Additional examination of the effect of thiolatocobalamins CyaCbl and MPGCbl and sulfur-containing alkylcobalamin Me-S-MeCbl with respect to structural analogues that are NOT available for therapy was also carried out, for comparative purposes. The results of cellular response (healthy controls and cblC patient fibroblasts) to cobalamin treatment, as reflected by MMA levels is provided in Table 6.

[6] = system: fibroblasts from healthy subjects; assay: MMA in conditioned medium of control fibroblasts; format: cell-based, human
Excerpt: as §3, §4, §5

[7] = target: T2, human recombinant CblC wild type; format: biochemical; settings: for Half-life of beta-axial ligand removal, Wild type CblC: human, pH 7.6
Description: as §1
The enzymatic activity of CblC in the presence of CyaCbl and MPGCbl as substrates was evaluated under the same experimental conditions utilized to examine dealkylation of MeCbl and AdoCbl. […] The reaction was complete in less than 10 seconds, which is the time it takes to record the first spectrum after mixing of CblC-bound to CyaCbl or MPGCbl with 5 mM GSH (FIG. 12).
as §2

[8] = GM02345B cblC fibroblasts, after 7 days
[9] = GM02452C cblC fibroblasts, after 7 days
[10] = GM10011 cblC fibroblasts, after 7 days
[11] = WG1801 cblC fibroblasts, after 7 days
[12] = WG2176 cblC fibroblasts, after 7 days
[13] = WG3354 cblC fibroblasts, after 7 days
[14] = cblC patients (group value), after 7 days
[15] = cblC patients, after 7 days wash-off period without supplemental cobalamin
[16] = Controls (group value), after 7 days
[17] = Controls, after 7 days wash-off period without supplemental cobalamin
[18] = HFF control fibroblasts, after 7 days
[19] = NHDF control fibroblasts, after 7 days
[20] = Wiezel control fibroblasts, after 7 days

Row | Compound | K, concentration-dependent reaction rate (formation from aquacobalamin) [1] | K, concentration-dependent reaction rate (formation from aquacobalamin) [2] | Product under ambient conditions, Wild type CblC [3] | Product under ambient conditions, Mutant Arg161Gly [4] | Half-life of beta-axial ligand removal, Mutant Arg161Gly [4] | MMA in conditioned medium [5, 8] | MMA in conditioned medium [5, 9] | MMA in conditioned medium [5, 10] | MMA in conditioned medium [5, 11] | MMA in conditioned medium [5, 12] | MMA in conditioned medium [5, 13] | MMA in conditioned medium [5, 14] | MMA in conditioned medium [5, 15] | MMA in conditioned medium [6, 16] | MMA in conditioned medium [6, 17] | MMA in conditioned medium [6, 18] | MMA in conditioned medium [6, 19] | MMA in conditioned medium [6, 20] | Half-life of beta-axial ligand removal, Wild type CblC [7] | also measured
1 | CC(C[S][Co+2])C(=O)N1CCCC1C(=O)O.CC1=C2N=C(C=C3N=C(C(C)=C4[N-]C(C(CC(N)=O)C4(C)CCC(=O)NCC(C)OP(=O)([O-])OC4C(CO)OC(n5cnc6cc(C)c(C)cc65)C4O)C4(C)N=C1C(CCC(N)=O)C4(C)CC(N)=O)C(CCC(N)=O)C3(C)C)C(CCC(N)=O)C2(C)CC(N)=O (centres unmarked) [CaptoprilCbl] | 24.7 M⁻¹ s⁻¹ |  |  |  |  |  |  |  |  |  |  |  |  |  |  |  |  |  |  | 
2 | CC1=C2N=C(C=C3N=C(C(C)=C4[N-]C(C(CC(N)=O)C4(C)CCC(=O)NCC(C)OP(=O)([O-])OC4C(CO)OC(n5cnc6cc(C)c(C)cc65)C4O)C4(C)N=C1C(CCC(N)=O)C4(C)CC(N)=O)C(CCC(N)=O)C3(C)C)C(CCC(N)=O)C2(C)CC(N)=O.NCC[S][Co+2] (centres unmarked) [CyaCbl] |  | 28.66 M⁻¹ s⁻¹ | H2OCbl | H2OCbl | 2.1 min | 0.217 μmol/mg protein | 0.369 μmol/mg protein | 0.208 μmol/mg protein | 0.194 μmol/mg protein | 0.189 μmol/mg protein | 0.114 μmol/mg protein | 0.215 μmol/mg protein | 0.190 μmol/mg protein | 0.141 μmol/mg protein | 0.154 μmol/mg protein | 0.095 μmol/mg protein | 0.184 μmol/mg protein | 0.144 μmol/mg protein | <0.5 min | Effect of binding to human wild type CblC on configuration (human wild type CblC): induces their base-off configuration; Transport into the cells (cultured fibroblasts; canonical TC transporter and its cellular receptor CD320): transported successfully into the cells; Cytotoxicity (cultured fibroblasts; under the experimental conditions of the fibroblast cultures): not cytotoxic; Reduction of MMA to the levels of healthy fibroblasts, compared with CNCbl ([5]; 0.001 mM, same dose as CNCbl, FIG. 13): far superior compared to CNCbl; Product of the reaction ([7]; cobalamin bound to human CblC, in the presence of GSH): H2OCbl^+
3 | C/C1=C2N=C(/C=C3N=C(/C(C)=C4\[N-]C(C(CC(N)=O)C4(C)CCC(=O)NCC(C)OP(=O)([O-])OC4C(CO)OC(n5cnc6cc(C)c(C)cc65)C4O)C4(C)N=C1C(CCC(N)=O)C4(C)CC(N)=O)C(CCC(N)=O)C\3(C)C)C(CCC(N)=O)C/2(C)CC(N)=O.NC(CCC(=O)NC(C[S-])C(=O)NCC(=O)O)C(=O)O.[Co+3] (centres unmarked) [GSCbl, glutathionylcobalamin, reference compound] | 18.09 M⁻¹ s⁻¹ | 20.74 M⁻¹ s⁻¹ | H2OCbl | H2OCbl | 9.8 min | 0.223 μmol/mg protein | 0.167 μmol/mg protein | 0.052 μmol/mg protein | 0.198 μmol/mg protein | 0.316 μmol/mg protein | 0.269 μmol/mg protein | 0.204 μmol/mg protein | 0.275 μmol/mg protein | 0.106 μmol/mg protein | 0.134 μmol/mg protein | 0.105 μmol/mg protein | 0.078 μmol/mg protein | 0.135 μmol/mg protein | 2.5 min | Fold less proficient support of the CblC reaction than MPGCbl and CyaCbl ([7]; wild type and pathogenic variant Arg161Gly): 4-5 fold

Reference: patent US11384113B2, “Cobalamin derivatives and their use for the treatment of diseases caused by lack of vitamin B12 supply” (Albert-Ludwigs-Universitaet Freiburg, priority 2017, dated 2022)
